Measurements: US9068971B2, “Methods for treating and/or limiting development of diabetes” (BioCrine AB, priority 2012, dated 2015)
Entries after “also recorded” stand apart in the source; their conditions may differ.

Experiments:
β cell CaV channels [1] = assay: Perforated whole-cell patch-clamp of Ca2+ currents in RINm5F cells; type: cell-based, rat; conditions: for effect on ApoCIII-induced hyperactivation of β cell CaV channels (enhancement of whole-cell Ca2+ currents): ApoCIII 20 μg/ml overnight with inhibitor cotreatment or after siRNA pretransfection; for whole-cell Ca2+ current density under basal conditions, inhibitor(s) versus vehicle: in the absence of ApoCIII; for whole-cell Ca2+ current density, ApoCIII alone compared with ApoCIII plus inhibitor(s): ApoCIII 20 μg/ml
Experimental: (§1) Islets of Langerhans were isolated from adult male and female mice and dispersed into single β cells. RINm5F cells at about 70% confluency were trypsinized. The resultant suspension of cells was seeded into Petri dishes or 12-well plates. The cells were cultivated in RPMI 1640 medium supplemented with 10% fetal bovine serum, 2 mM L-glutamine, and 100 U/100 μg/ml penicillin/streptomycin (Invitrogen, Carlsbad, Calif.) and maintained at 37° C. in a humidified 5% CO2 incubator. They were grown overnight and then subjected to siRNA transfection. For patch-clamp analysis, cells underwent overnight treatment with ApoCIII, the PKA inhibitor H-89 (Calbiochem, La Jolla, Calif.), the PKC inhibitor calphostin C (Calbiochem), the Src kinase inhibitor PP2 (Calbiochem) and the CaV1 channel blocker nimodipine (Calbiochem) in RPMI medium at final concentrations of 20 μg/ml, 0.5 μM, 0.1 μM, 0.1 μM and 5 μM, respectively. ApoCIII was dissolved in 0.1% triflouroacetic acid (TFA) to make a stock solution of 1 mg/ml, whereas H-89, calphostin C, PP2 and nimodipine were dissolved in dimethyl sulfoxide (DMSO) to form stock solutions of 5 mM, 1 mM, 1 mM and 10 mM, respectively. 0.002% TFA and/or 0.03% DMSO were used as vehicle controls.
Two pairs of 21-mer siRNA duplexes targeting the rat β1 integrin (β1 integrin siRNA #1, ID127971 and (31 integrin siRNA #2, ID127972) and SRBI (ID128929) were designed and chemically synthesized by Applied Biosystems/Ambion (Austin, Tex.). Their sequences were subjected to BLAST search to ensure their specificity. Silencer® Select Negative Control siRNA (4390843), not targeting any gene product, and Silencer® Select GAPDH Positive Control siRNA (4390849), efficiently silencing GAPDH in human, mouse, and rat cells, were purchased from Applied Biosystems/Ambion (Austin, Tex.). RINm5F cells were reversely transfected with Lipofectamine™ RNAiMAX. Briefly, negative control siRNA, β1 integrin siRNA #1, β1 integrin siRNA #2 or SRBI siRNA was mixed with Lipofectamine™ RNAiMAX followed by 20-min incubation at room temperature. Subsequently, cells were added to the siRNA/Lipofectamine™ RNAiMAX mixtures followed by gentle agitation and kept at 37° C. in a humidified 5% CO2 incubator. After 72 h, the transfected cells were grown to about 70% confluency and subjected to immunoblot assay or different treatments.
(§2) Mouse islet cells and RINm5F cells following different treatments were subjected to single channel and whole-cell patch-clamp measurements. Cell-attached and perforated whole-cell patch-clamp configurations were employed. Electrodes were made from borosilicate glass capillaries, fire-polished and coated with Sylgard close to their tips. Some of them were filled with a solution containing (in mM) 110 BaCl2, 10 TEA-Cl, and 5 HEPES (pH 7.4 with Ba(OH)2) for single channel measurements. Others were filled with a solution composed of (in mM) 76 Cs2SO4, 1 MgCl2, 10 KCl, 10 NaCl, and 5 HEPES (pH 7.35 with CsOH), as well as amphotericin B (0.24 mg/ml) for whole-cell current recordings. Electrode resistance ranged between 4 and 6 MΩ when they were filled with electrode solutions and immersed in bath solutions. The electrode offset potential was corrected in bath solutions prior to gigaseal formation. Single-channel recordings were performed with cells bathed in a depolarizing external recording solution, containing (in mM) 125 KCl, 30 KOH, 10 EGTA, 2 CaCl2, 1 MgCl2, and 5 HEPES-KOH (pH 7.15). This solution was used to bring the intracellular potential to 0 mV. For perforated whole-cell current measurements, the cells were bathed in a solution containing (in mM) 138 NaCl, 5.6 KCl, 1.2 MgCl2, 10 CaCl2, 5 HEPES (pH 7.4). Single channel and whole-cell currents were recorded with an Axopatch 200B amplifier (Molecular Devices, Foster City, Calif.) and an EPC-9 patch clamp amplifier (HEKA Elektronik, Lambrecht/Pfalz, Germany), respectively, at room temperature (about 22° C.). […]

SRBI [2] = target: T1, SRBI (Homo sapiens, UniProt Q8WTV0); conditions: cited from earlier work
T1 sequence (Q8WTV0 1-509 isoform Q8WTV0-2): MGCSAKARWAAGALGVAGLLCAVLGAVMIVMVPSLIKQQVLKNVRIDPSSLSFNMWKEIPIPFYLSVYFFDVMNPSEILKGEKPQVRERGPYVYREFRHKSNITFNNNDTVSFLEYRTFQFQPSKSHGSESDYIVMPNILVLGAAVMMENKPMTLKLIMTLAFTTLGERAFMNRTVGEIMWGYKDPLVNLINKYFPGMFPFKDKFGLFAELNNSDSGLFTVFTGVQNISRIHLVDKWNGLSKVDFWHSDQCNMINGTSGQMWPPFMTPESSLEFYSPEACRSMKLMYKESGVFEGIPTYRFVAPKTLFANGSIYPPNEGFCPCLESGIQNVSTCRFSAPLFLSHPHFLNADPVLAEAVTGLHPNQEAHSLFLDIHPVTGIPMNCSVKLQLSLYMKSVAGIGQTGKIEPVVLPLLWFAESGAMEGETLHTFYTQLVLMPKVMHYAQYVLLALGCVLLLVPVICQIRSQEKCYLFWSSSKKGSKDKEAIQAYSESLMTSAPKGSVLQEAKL

CaV1 channels [3] = assay: Cell-attached single channel patch-clamp of unitary CaV1 channel currents in mouse islet β cells; type: cell-based; conditions: ApoCIII 20 μg/ml overnight versus control vehicle
Experimental: as §1
as §2, with “For perforated whole-cell current measurements, the cells were bathed in a solution containing (in mM) 138 NaCl, 5.6 KCl, 1.2 MgCl2, 10 CaCl2, 5 HEPES (pH 7.4).” left out
(§3) All data are presented as mean±SEM. Statistical significance was determined by one-way ANOVA, followed by least significant difference (LSD) test. […]

CaV1 channels [4] = assay: Cell-attached single channel patch-clamp of unitary CaV1 channel currents in RINm5F cells; type: cell-based, rat; conditions: ApoCIII 20 μg/ml overnight versus vehicle solution
Experimental: as §1
as §2, with “For perforated whole-cell current measurements, the cells were bathed in a solution containing (in mM) 138 NaCl, 5.6 KCl, 1.2 MgCl2, 10 CaCl2, 5 HEPES (pH 7.4).” left out
as §3

CaV1.2 = assay: Immunoblot of CaV1.2 subunits in RINm5F cell homogenates; type: cell-based, rat; conditions: overnight ApoCIII
Experimental: (§4) Islets of Langerhans were isolated from adult male and female mice and dispersed into single β cells. RINm5F cells at about 70% confluency were trypsinized. The resultant suspension of cells was seeded into Petri dishes or 12-well plates. The cells were cultivated in RPMI 1640 medium supplemented with 10% fetal bovine serum, 2 mM L-glutamine, and 100 U/100 μg/ml penicillin/streptomycin (Invitrogen, Carlsbad, Calif.) and maintained at 37° C. in a humidified 5% CO2 incubator. They were grown overnight and then subjected to siRNA transfection. […]
(§5) RINm5F cells following different treatments were lysed in a lysis buffer (pH 7.5) consisting of 50 mM HEPES, 150 mM NaCl, 1 mM EGTA, 1 mM EDTA, 10% glycerol, 1% triton X-100, 1 mM PMSF and a protease inhibitor cocktail (Roche Diagnostics, Mannheim, Germany). […] The protein concentration of the resulting samples was determined with Bio-Rad protein assay reagent (Bio-Rad, Hercules, Calif.). […]
as §3

CaV1.3 = assay: Immunoblot of CaV1.3 subunits in RINm5F cell homogenates; type: cell-based, rat; conditions: overnight ApoCIII
Experimental: as §4, §5, §3

β cell CaV channels [5] = conditions: mouse islet β cell; previous work; cited from earlier work
SRBI [6] = conditions: cited from earlier work
[7] = overnight, H-89 0.5 μM, calphostin C 0.1 μM, PP2 0.1 μM

## O=S(=O)(NCCNC/C=C/c1ccc(Br)cc1)c1cccc2cnccc12 [H-89]
β cell CaV channels [1]
  effect on ApoCIII-induced hyperactivation of β cell CaV channels (enhancement of whole-cell Ca2+ currents): marginally reduced
  whole-cell Ca2+ current density under basal conditions, inhibitor(s) versus vehicle: did not significantly influence
β cell CaV channels [1]; [7]
  whole-cell Ca2+ current density, ApoCIII alone compared with ApoCIII plus inhibitor(s): did not significantly differ
β cell CaV channels [1]; overnight, nimodipine 5 μM (control = Nim alone), H-89 0.5 μM, calphostin C 0.1 μM, PP2 0.1 μM
  whole-cell Ca2+ current density, ApoCIII plus inhibitor(s) compared with control cells: did not significantly differ

## CC(C)(C)n1nc(-c2ccc(Cl)cc2)c2c(N)ncnc21 [PP2]
β cell CaV channels [1]
  effect on ApoCIII-induced hyperactivation of β cell CaV channels (enhancement of whole-cell Ca2+ currents): tendency to decrease
  whole-cell Ca2+ current density under basal conditions, inhibitor(s) versus vehicle: similar
β cell CaV channels [1]; voltage range 20-40 mV
  whole-cell Ca2+ currents, ApoCIII and PP2 cotreatment versus vehicle-treated control cells: significantly larger

## CC(C)(C)OC(=O)N1CCN(c2ccc(NC(=O)c3cc([N+](=O)[O-])ccc3Cl)cc2)CC1 [R-138329, N-[4-(4-tert-Butoxycarbonylpiperazin-1-yl)phenyl]-(2-chloro-5-nitrophenyl)carboxamide]
SRBI [2]
  SRBI receptor activity: block

## ApoCIII: protein comprising the amino acid sequence shown in SEQ ID NO:2 (Human), SEQ ID NO:4 (Rat) or SEQ ID NO:6 (Macaque)
CaV1 channels [3]
  mean closed time of unitary CaV1 channels: significantly shorter
  mean open time of unitary CaV1 channels: significantly greater
  open probability of unitary CaV1 channels: significantly greater
CaV1 channels [3]; plasma membrane patches
  average number of unitary CaV1 channels: significantly greater
CaV1 channels [4]
  channel number of CaV1 channels: significantly increased
  mean closed time of CaV1 channels: shortened
  mean open time of CaV1 channels: prolonged
  open probability of CaV1 channels: elevated
β cell CaV channels [1]; no voltage range printed (FIG. 4d)
  whole-cell Ca2+ current density, ApoCIII group versus control group: Significantly higher
β cell CaV channels [1]; voltage range 10-50 mV
  whole-cell Ca2+ current density, ApoCIII-treated versus vehicle-treated control cells: significantly higher; also recorded: increased significantly; also recorded: significantly elevated; also recorded: significantly increased
β cell CaV channels [1]; voltage range from 10 to 30 mV
  whole-cell Ca2+ current density, ApoCIII group versus control group: significantly higher
CaV1.2
  relative abundance of CaV1.2 subunits, ApoCIII versus vehicle incubation: no significant difference
CaV1.3
  relative abundance of CaV1.3 subunits, ApoCIII versus vehicle incubation: no significant difference
β cell CaV channels [5]
  whole-cell Ca2+ currents after ApoCIII incubation: significantly enhances

## calphostin C
β cell CaV channels [1]
  effect on ApoCIII-induced hyperactivation of β cell CaV channels (enhancement of whole-cell Ca2+ currents): does not affect
  whole-cell Ca2+ current density under basal conditions, inhibitor(s) versus vehicle: similar
β cell CaV channels [1]; [7]
  whole-cell Ca2+ current density, ApoCIII alone compared with ApoCIII plus inhibitor(s): no difference
β cell CaV channels [1]; voltage range from 20 to 50 mV
  whole-cell Ca2+ current density, ApoCIII/CalpC versus vehicle-treated control cells: increased significantly

## interferon alpha
SRBI [6]
  SRBI expression: inhibit
